The record followed here is the METLIN SMRT retention time set (Domingo-Almenara et al. 2019).

The data set in a line: gradient 5% acetonitrile 3 min, to 50% in 2 min, to 85% in 15 min, held 3 min, 100 µL/min. The conditions noted are these: column: Zorbax Extend-C18 2.1 x 50 mm; eluents: water / acetonitrile, 0.1% formic acid. An outline of the steps: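 A Zorbax Extend-C18 column (2.1 × 50 mm, 1.8 μm) run at 100 μL/min with water and acetonitrile, both containing 0.1% formic acid, separated mixtures of ~100 pure standards. The HPLC was coupled to a quadrupole time-of-flight mass spectrometer operated in positive and negative ionization mode, with dead and dwell volumes of 40 μL and 900 μL. Each retention time was taken from a computationally picked adduct peak that was then manually inspected.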
`Cc1ccc2c(c1Br)C(O)(CC(=O)c1ccc(F)cc1)C(=O)N2` (configuration not stated) gave an RP-LC retention time of 802 s. Consider `O=c1n(Cc2cccc(F)c2)nc2ccc(S(=O)(=O)N3CCc4ccccc4C3)cn12`, for which the RP-LC retention time was 987 s. As for `CCCS(=O)(=O)NCc1ccc2c(c1)CCN2C(=O)CC(C)C`, the RP-LC retention time was determined as 862 s. Under `CCc1ccccc1NC(=O)N1CCC(c2nc(C(=O)N3CCCC3)c(C)o2)CC1` stands 782 s; under `COc1ccc(-c2nc(-c3cn(-c4ccc(C)cc4)nn3)no2)cc1OC`, 1050 s; under `COc1ccccc1OC(C)C(=O)N(Cc1ccc(C)o1)C1CCS(=O)(=O)C1` (configuration not stated), 847 s. In the case of `CCC1CCCCN1C(=O)c1cnc2nc(C)ccc2c1Nc1cc(F)ccc1C` (configuration not stated), the RP-LC retention time was found to be 705 s. Compound `Cc1cccc(-c2noc(-c3ccc(N4CCN(Cc5ccc6c(c5)OCO6)CC4)nc3)n2)c1` came in with an RP-LC retention time of 848 s. Under `CCn1cc(-c2nc(C(=O)Nc3cc(OC)ccc3OC)cs2)c2cccnc21` stands 1170 s.

The compound `Oc1ccccc1-n1c(-c2ccccc2)ccc1-c1ccccc1` displayed an RP-LC retention time of 1190 s. `CN1CCn2cc(S(=O)(=O)Nc3cc(F)cc(F)c3)cc2C1=O` showed an RP-LC retention time of 727 s. Then `CCN1CCN(c2cc(C)c3cc(NC(=O)COc4ccccc4)ccc3n2)CC1`, with 609 s; and `Cc1ccc(-c2nnc3ccc(SCC(=O)OCc4ccccc4)nn23)cc1`, with 840 s; and `COc1cccc(-c2noc(C3CC(=O)N(c4ccc5c(c4)OCO5)C3)n2)c1OC` (configuration not stated), with 871 s. Then `Cc1cccc(N2CCN(C(=O)C3=CCN(Cc4ccccc4)CC3)CC2)c1`, with 681 s; and `COc1ccc(-c2noc(-c3cccnc3N3CCN(c4ccccc4F)CC3)n2)cc1`, with 1370 s; and `CCCn1c(=O)sc2cc(S(=O)(=O)N3CCC(C(=O)Nc4ccc(Cl)cc4)CC3)ccc21`, with 1040 s. For `CCOc1cccc(-c2noc(Cn3c(=O)n(Cc4ccc(OC)cc4)c(=O)c4sccc43)n2)c1`, the RP-LC retention time amounted to 1060 s. `CCN1C(=O)C2(CCN(S(=O)(=O)c3cccs3)CC2)c2ccccc21` had an RP-LC retention time of 983 s. Under `CC(=O)Nc1cccc2c(C(=O)N3CCN(c4ccccc4Cl)CC3)ccnc12` stands 946 s; under `COc1ccc(-n2ccn3cc(-c4ccc(F)cc4)nc3c2=O)cc1`, 790 s. Turning to `O=C(NCc1cccs1)C1CCCN(C(=O)C2Sc3ccccc3NC2=O)C1` (configuration not stated), the RP-LC retention time turned out to be 725 s.

As to `Cc1cccc(NC(=O)Nc2nccn(-c3cccc(Cl)c3C)c2=O)c1`, the RP-LC retention time was 1110 s. In turn, `CCOC(=O)C1CCN(C(=O)CCC(=O)N2CCCn3nc(-c4cn(C)c5ccccc45)cc32)CC1` yielded an RP-LC retention time of 798 s. Turning to `CCc1ccc(N2C(=O)CN(S(C)(=O)=O)CC2(C)C(=O)NCc2ccc(F)cc2)cc1` (configuration not stated), the RP-LC retention time turned out to be 834 s. In the case of `CCOc1ccc2nc(N3CCCC(C(=O)NCCc4ccc(S(N)(=O)=O)cc4)C3)sc2c1` (configuration not stated), the RP-LC retention time came to 730 s. Then `CC(C)Oc1cccc(NC(=O)C2CCN(S(C)(=O)=O)c3cc(Cl)ccc3O2)c1` (configuration not stated), with 998 s. Under `Cc1oc(C2CCN(C(=O)Nc3ccc(F)cc3)CC2)nc1C(=O)N1CCOCC1` stands 686 s; under `O=C(Nc1ccccc1)c1ccc2c(cnn2CC(=O)N2CCCCCC2)c1`, 800 s; under `COc1ccc(-c2ccc(=O)n(Cc3nc(-c4ccc(F)cc4)no3)n2)cc1`, 995 s. Turning to `COc1ccc(Cl)c2c(=O)c3c([nH]c12)CCN(CC(=O)NCc1ccc(C)cc1)C3`, the RP-LC retention time was 630 s. Then `CN1C(=O)c2cc(C(=O)N3CCN(c4ncccn4)CC3)nn2CC1(C)C(=O)NC1CCCCCC1` (configuration not stated), with 742 s.

In turn, `CC(NC(=O)Nc1ccc(Br)cc1)C(=O)N1CCc2ccccc21` (configuration not stated) had an RP-LC retention time of 941 s. `O=C(Cn1cccc1-c1nnc(C2CCC2)o1)Nc1ccc(F)c(Cl)c1` yielded an RP-LC retention time of 965 s. Then `COc1ccc(-n2ccn3c(CCC(=O)N4CCN(c5ccccn5)CC4)nnc3c2=O)cc1`, with 663 s; and `Cc1ccc(-c2nc3cnccn3c2Nc2ccc(C(=O)O)cc2)cc1`, with 706 s; and `COc1ccc(NC(=O)Nc2c(-c3ccc(F)cc3)nc3ccccn23)cc1`, with 649 s. For the compound `CCn1nc(C)c(-c2cc(C(=O)O)[nH]n2)c1C`, the RP-LC retention time turned out to be 589 s. Then `Cc1ccc(CN2CCC(CNC(=O)c3c(C)oc4nc(C)nc(N5CCOCC5)c34)CC2)cc1`, with 629 s; and `CCOc1cccc(-c2noc(Cn3c(=O)n(-c4ccccc4F)c(=O)c4sccc43)n2)c1`, with 1050 s; and `O=C(C1=Cc2ccccc2OC=C1)N1CCc2ccccc2C1`, with 1090 s. `Cc1ccccc1S(=O)(=O)N1CCC(CCC(=O)NC2CCS(=O)(=O)C2)CC1` (configuration not stated) had an RP-LC retention time of 726 s.

`O=C(Cn1cccc(-c2nc(-c3ccccc3)no2)c1=O)Nc1ccc(Br)cc1F` had an RP-LC retention time of 951 s. Under `CC(C)C(NC(=O)CCc1ccccc1)C(=O)Nc1nc2ccccc2[nH]1` (configuration not stated) stands 718 s; under `CCCCOc1ccc(NC(=O)c2cc(=O)c3cc(Cl)ccc3o2)c2cccnc12`, 787 s. Under `C[C@H]1CN(C(=O)Nc2ccc(Cl)cc2)C[C@@H]1c1nc(-c2ccccc2)no1` stands 1080 s; under `O=C1NCCCCCCN(Cc2ccc(C(F)(F)F)cc2)[C@H]2CCC[C@@H]12`, 700 s. `COc1ccc(C2(C(=O)N3CCC(Cc4ccc(COc5ccncc5)cc4)CC3)CC2)cc1` gave an RP-LC retention time of 750 s. Under `CNC(=O)c1cccc(Nc2c(-c3ccc(N(C)C)cc3)nc3cnccn23)c1` stands 610 s; under `Cc1[nH]c(=O)nc(N/N=C/c2ccc(Cl)cc2)c1C(=O)Nc1ccc(Cl)cc1`, 1020 s; under `O=C(NCCCN1CCCCC1)C1CCN(c2cnn(Cc3ccccc3)c(=O)c2)CC1`, 606 s. Compound `O=S(=O)(Nc1ccc(Cl)cc1F)c1c[nH]c2ncccc12` gave an RP-LC retention time of 740 s. The compound `COc1cccc(NC(=O)N2CCc3nc[nH]c3C2)c1` gave an RP-LC retention time of 554 s. Under `CN1C(=O)c2cccnc2Sc2cc(C(=O)NC3CCCC3)ccc21` stands 726 s; under `CC1CCN(c2nccnc2Oc2ccc(C(=O)NCc3ccco3)cc2)CC1`, 979 s; under `C[C@@H]1COC(Nc2ccc3ncnc(Nc4ccc(OCc5nccs5)c(Cl)c4)c3c2)=N1`, 634 s. The compound `CCCCn1c(=O)c2ccccc2n(Cc2nc(-c3ccc(C(F)(F)F)cc3)no2)c1=O` displayed an RP-LC retention time of 1260 s. Compound `COCCCn1c(=O)c2ccccc2n(Cc2nc(-c3cccc(Br)c3)no2)c1=O` returned an RP-LC retention time of 1190 s. With `COc1cccc(CNC(=O)c2nsc(C(=O)N3CCN(c4ccccn4)CC3)c2N)c1`, the RP-LC retention time worked out at 660 s. In turn, `CCOc1ccccc1-c1noc(-c2nnn3c2COC(c2ccc(F)cc2)C3)n1` (configuration not stated) registered an RP-LC retention time of 1130 s.

`C=CCN1C(=O)COc2ccc(-c3nc(NC(C)=O)sc3C)cc21` yielded an RP-LC retention time of 787 s. Compound `COC(=O)c1c(NCc2cccc(OC)c2)c2cccc(Cl)c2[nH]c1=O` showed an RP-LC retention time of 803 s. As for `CS(=O)(=O)c1ccc(NC(=O)Cn2cnc3c(sc4nc(-c5ccccc5)ccc43)c2=O)cc1`, the RP-LC retention time came to 862 s. Under `Cc1ccc(-n2c(CN3CCN(C(=O)NC4CCCC4)CC3)nc3cccnc32)cc1` stands 663 s. In turn, `O=C(Cn1nc2c3cc(-c4ccccc4)nn3ccn2c1=O)NC1CCCC1` gave an RP-LC retention time of 796 s. Then `CN(C)C(=O)c1ccc2c(c1)n(Cc1ccccc1)c(=O)c1ccnn12`, with 768 s. As to `O=S(=O)(c1ccc2c(c1)CCC2)N1CCC(CN2CCCCCC2)CC1`, the RP-LC retention time was found to be 708 s. On to `Cc1cccn2c(Nc3ccc4c(c3)OCCO4)c(-c3ccc(O)cc3)nc12`, for which the RP-LC retention time amounted to 642 s.

The compound `Cc1ccc(Cl)cc1NC(=O)N1CCC(n2cnc3cccnc32)CC1` displayed an RP-LC retention time of 682 s. In turn, `COc1ccc(C)cc1NC(=O)N1c2ccccc2CC1c1nc(C2CC2)no1` (configuration not stated) yielded an RP-LC retention time of 1150 s.

The compound `Cc1nn(CC(=O)NCCCN2CCCC2=O)c(=O)c2nn(-c3ccccc3)c(C)c12` came in with an RP-LC retention time of 642 s. For `CN1CCN(CCCNC(=O)CN2C(=O)CCn3nc(-c4cn(C)c5ccccc45)cc32)CC1`, the RP-LC retention time turned out to be 587 s. In the case of `COc1ccc(-c2nnc(-c3ccc(C)c(S(=O)(=O)N(C)CC(=O)O)c3)o2)cc1OC`, the RP-LC retention time was determined as 748 s. Regarding `Cc1ccc(-c2nc3nc(C)cc(N(CCO)Cc4ccccc4)n3n2)cc1`, the RP-LC retention time is 815 s.

`CC(C)(C)C(=O)NC1CCN(C(=O)C2CC2)C1` (configuration not stated) registered an RP-LC retention time of 623 s. Then `COc1ccccc1CNC(=O)C1CCCN(c2nnc(C)c3c(C)n(-c4ccccc4)nc23)C1` (configuration not stated), with 725 s. Compound `COC(=O)C1=CN(C2CC2)c2cc(N3CCC(C)CC3)c(F)cc2S1(=O)=O` yielded an RP-LC retention time of 1010 s.
